From ChEMBL document CHEMBL4819050, “Discovery of a novel series of guanidinebenzoates as gut-restricted enteropeptidase and trypsin dual inhibitors for the treatment of metabolic syndrome” (Bioorg Med Chem Lett, 2021)

What was measured:
Bos taurus [1] = organism: Bos taurus; test: Inhibition of bovine trypsin assessed as protease activity using D-CHA-AR-AMC as substrate at 1 uM by fluorescence assay relative to control; parameters: scale not given: the % may be the effect or the level left
[2] = biological target: Enteropeptidase (Homo sapiens) (UniProt P98073); test: Inhibition of full length recombinant human EP expressed in CHO cells assessed as protease activity using […] as substrate at 0.1 uM by fluorescence assay relative to control; parameters: scale not given: the % may be the effect or the level left
[3] = Volume of distribution at steady state in C57BL/6J mouse at 5 mg/kg, iv; format: ADME, organism-based; conditions: in vivo, read-out: Vdss
[4] = Cmax in C57BL/6J mouse at 20 mg/kg, po; format: ADME, organism-based; parameters: route oral, dose 20 mg/kg; conditions: in vivo
[5] = Oral bioavailability in C57BL/6J mouse at 20 mg/kg; format: ADME, organism-based; conditions: in vivo
Bos taurus [6] = organism: Bos taurus; test: Inhibition of bovine trypsin assessed as protease activity using D-CHA-AR-AMC as substrate at 10 uM by fluorescence assay relative to control; parameters: scale not given: the % may be the effect or the level left
[7] = Clearance in C57BL/6J mouse at 5 mg/kg, iv; format: ADME, organism-based; conditions: in vivo
[8] = biological target: Enteropeptidase (Homo sapiens) (UniProt P98073); test: Inhibition of full length recombinant human EP expressed in CHO cells assessed as ratio of Kinact/Kiapp; format: cell-based
[9] = biological target: Enteropeptidase (Homo sapiens) (UniProt P98073); test: Inhibition of full length recombinant human EP expressed in CHO cells assessed as protease activity using […] as substrate at 10 uM by fluorescence assay relative to control; parameters: scale not given: the % may be the effect or the level left
[10] = Apparent permeability from apical to basolateral side in dog MDCK cells; format: ADME, cell-based, Canis lupus familiaris
Bos taurus [11] = organism: Bos taurus; test: Inhibition of bovine trypsin assessed as ratio of Kinact/Kiapp
[12] = AUClast in C57BL/6J mouse at 20 mg/kg, po; format: ADME, organism-based; parameters: route oral, time 0 - last, dose 20 mg/kg; conditions: in vivo
Bos taurus [13] = organism: Bos taurus; test: Inhibition of bovine trypsin assessed as protease activity using D-CHA-AR-AMC as substrate at 0.1 uM by fluorescence assay relative to control; parameters: scale not given: the % may be the effect or the level left
[14] = In vivo inhibition of EP in diet induced obese C57BL/6J mouse assessed as increase in fecal protein content at 30 mg/kg, po measured after 24 hrs relative to control; format: functional
[15] = biological target: Enteropeptidase (Homo sapiens) (UniProt P98073); test: Inhibition of full length recombinant human EP expressed in CHO cells assessed as protease activity using […] as substrate at 1 uM by fluorescence assay relative to control; parameters: scale not given: the % may be the effect or the level left

Chain of Enteropeptidase (Homo sapiens) (P98073 2-784 limits assumed): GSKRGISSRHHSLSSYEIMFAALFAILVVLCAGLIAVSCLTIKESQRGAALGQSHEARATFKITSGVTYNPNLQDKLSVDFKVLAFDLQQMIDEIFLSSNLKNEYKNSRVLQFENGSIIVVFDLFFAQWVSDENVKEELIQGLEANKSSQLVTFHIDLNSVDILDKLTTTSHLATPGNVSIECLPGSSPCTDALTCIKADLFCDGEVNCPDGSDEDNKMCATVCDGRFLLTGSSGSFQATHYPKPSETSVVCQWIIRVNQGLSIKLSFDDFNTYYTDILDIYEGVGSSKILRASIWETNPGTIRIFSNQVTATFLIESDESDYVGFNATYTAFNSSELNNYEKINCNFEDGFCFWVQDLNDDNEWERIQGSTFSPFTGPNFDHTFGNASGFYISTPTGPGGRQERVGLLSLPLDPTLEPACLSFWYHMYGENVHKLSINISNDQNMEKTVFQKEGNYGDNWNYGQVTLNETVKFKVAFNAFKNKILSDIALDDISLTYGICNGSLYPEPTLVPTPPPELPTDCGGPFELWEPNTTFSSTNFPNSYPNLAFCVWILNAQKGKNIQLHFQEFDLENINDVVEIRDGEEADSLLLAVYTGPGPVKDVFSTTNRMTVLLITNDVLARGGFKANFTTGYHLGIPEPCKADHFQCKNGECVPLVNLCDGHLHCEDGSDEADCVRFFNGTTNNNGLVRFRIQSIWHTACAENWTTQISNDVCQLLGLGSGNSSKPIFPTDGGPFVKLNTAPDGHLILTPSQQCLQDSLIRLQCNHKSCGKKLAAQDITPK
Chain of Enteropeptidase (Homo sapiens) (P98073 785-1019 limits assumed): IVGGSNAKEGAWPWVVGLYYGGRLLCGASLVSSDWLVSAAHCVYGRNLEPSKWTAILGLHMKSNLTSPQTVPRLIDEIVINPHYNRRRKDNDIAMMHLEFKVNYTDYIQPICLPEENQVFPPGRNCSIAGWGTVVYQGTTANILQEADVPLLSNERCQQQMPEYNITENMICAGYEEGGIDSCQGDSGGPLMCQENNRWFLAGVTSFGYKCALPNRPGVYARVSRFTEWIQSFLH

Activity (Bos taurus [1]) | Activity [2] | Vd [3] | Cmax [4] | bioavailability [5] | Activity (Bos taurus [6]) | clearance [7] | Ratio [8] | Activity [9] | Papp A→B [10] | Ratio (Bos taurus [11]) | AUC(0-t) [12] | Activity (Bos taurus [13]) | Activity [15] | SMILES | fold change (FC) [14]
100% | 97.8% | 3.68 L/kg | 43 ng/mL | 1.6% | 100% | 192 mL/min/kg | 130000 M⁻¹ s⁻¹ | 100% | 1.53 ×10⁻⁶ cm/s | 159000 M⁻¹ s⁻¹ | 27 ng·h/mL | 97.2% | 100% | N=C(N)Nc1ccc(C(=O)Oc2ccc(CC(=O)O)n3ncnc23)cc1 | 2.4
100% | 37.8% |  |  |  | 100% |  |  | 100% | 1.09 ×10⁻⁶ cm/s |  |  | 94.1% | 100% | N=C(N)Nc1ccc(C(=O)Oc2ccc(CC(=O)NC(CC(=O)O)(CC(=O)O)CC(=O)O)n3ncnc23)cc1 | 1.7
99.9% | 20.9% |  |  |  | 100% |  |  | 101% | 1.26 ×10⁻⁶ cm/s |  |  | 89.6% | 72.9% | N=C(N)Nc1ccc(C(=O)Oc2ccc(CC(=O)N(CC(=O)O)CC(=O)O)n3ncnc23)cc1 | 1.5
100% | 48.3% |  |  |  | 100% |  |  | 101% | 0.56 ×10⁻⁶ cm/s |  |  | 98.3% | 101% | N=C(N)Nc1ccc(C(=O)Oc2ccc(CC(=O)N[C@@H](CC(=O)O)C(=O)O)n3ncnc23)cc1 | 2.4
